From patent US10220026B2, “Micelle containing epirubicin-complexed block copolymer and anti-cancer agent, and pharmaceutical composition containing said micelle applicable to treatment of cancer, resistant cancer or metastatic cancer” (priority 2014, dated 2019)

Tests used:
[1] = Incorporation of compounds in micelles of epirubicin-conjugated block copolymer (HPLC, DLS); assay type: physicochemical; settings: for detection of the compound in micelles formed by epirubicin-conjugated block copolymer: micelles produced by the method of Example 1
Experimental: The mixed solution was applied to a rotary evaporator (N-1200AV (Elyra)) followed by evaporating the methanol. After having evaporated the methanol, HEPES buffer (10 mM, pH 7.4, 50 ml) was added to the flask followed by carrying out sonication for 30 minutes (Bioruptor, Cosmo Bio Co., Ltd., Japan). Subsequently, the solution was passed through a polyethersulfone (PES) filter (0.22 μm) (Millipore Corp.). The solution was further purified by subjecting to five rounds of ultrafiltration (molecular weight cutoff: 30,000 Da) (Centricon Plus-20, Millipore Corp.) for 15 minutes (while adding 5 ml of HEPES buffer (10 mM, pH 7.4) for each round of ultrafiltration) followed by concentrating to 15 ml. Finally, the solution was passed through a PES filter (0.22 μm).

[2] = tested on: MSTO-211H mesothelioma cells; experiment: Aldefluor assay (FACS) on cancer stem cells in mesothelioma; assay type: cell-based, human; settings: 1 μM cisplatin, 0.01 μM pemetrexed, 0.001 μM staurosporine, 0.01 μM UCN-1; 72 hours or 24 hours
[3] = tested on: mouse kidney cancer-derived cells (Renca); experiment: In vivo anti-cancer activity in orthotopic kidney cancer model (survival, lung metastasis, CD105); settings: Balb/c mice, intravenous, epirubicin equivalent 6 mg/kg, Days 4, 11, 18
[4] = tested on: epirubicin-resistant human mesothelioma cells (MSTO-211H-luc); experiment: In vivo anti-cancer activity in orthotopic mesothelioma model (survival); settings: female nude mice, intravenous, epirubicin equivalent 6 mg/kg, Days 5-63
Experimental: Human mesothelioma MSTO-211H was transfected with luciferase based on the method described in Mol. Ther., 2012 April, 20(4), 769-777 to obtain a luciferase-expressing strain (MSTO-211H-luc). MSTO-211H-luc cells were cultured for 3 months in medium containing 0.2 μg/ml of epirubicin to produce epirubicin-resistant human mesothelioma cells (MSTO-211H-luc). 1×10^6 of the epirubicin-resistant MSTO-211H-luc cells were administered into the thoracic cavity of female nude mice to produce an orthotopic implant model. Five days after administration, drugs at the dosages shown in the following table were diluted with physiological saline for injection (Otsuka Pharmaceutical Co., Ltd.) and administered into the caudal vein (on Days 5, 9, 13, 23, 33, 43, 53 and 63).
HEPES solution was administered instead of a drug for use as a negative control. […] D-luciferin (Summit Pharmaceuticals International Corp.) was administered intraperitoneally, and body weights of the mice were measured simultaneous to measuring luminescence intensity of the luciferase twice a week using an IVIS Imaging System (Summit Pharmaceuticals International Corp.) (FIGS. 6A to 6C). […] Significant differences as determined with a log-rank test were observed between the negative control and Epi (P=0.016), between Epi and Epi Micelle (P=0.0001) and between Epi Micelle and STS+Epi Micelle (P=0.0012).

[5] = tested on: cisplatin-resistant human lung cancer H460-luc cells; experiment: In vivo anti-cancer activity in orthotopic lung cancer model (survival); settings: female nude mice, intravenous, epirubicin equivalent 6 mg/kg, Days 4, 11, 18, 25, 32
Experimental: Luciferase-expressing lung cancer H460-luc cells (JCRB) were cultured for 3 months in medium containing 1 μg/ml of cisplatin to acquire a cisplatin-resistant strain. 2×10^6 cells of the cisplatin-resistant strain H460-luc (containing 10% Matrigel (Becton Dickinson) were implanted into the left lower lobe of the lungs of female nude mice in accordance with the method described in Fushiki, et al., Cancer Sci., 2009 August, 100(8). Four days after implant, the drugs indicated in the following table were diluted to their prescribed dosages with physiological saline for injection (Otsuka Pharmaceutical Co., Ltd.) and administered into the caudal vein (on Days 4, 11, 18, 25 and 32).
HEPES solution was administered instead of a drug for use as a negative control. […] D-luciferin (Summit Pharmaceuticals International Corp.) was administered intraperitoneally and luminescence intensity of the luciferase was measured twice a week using an IVIS Imaging System (Summit Pharmaceuticals International Corp.) (FIG. 8A). Survival curves were verified according to the Kaplan-Meier method using Prism software and the presence of significant differences was tested using the log-rank test.

[6] = tested on: Epirubicin-resistant breast cancer cells (MCF-7); experiment: Elimination of epirubicin and eFluxx-ID-GFP by resistant strain (confocal microscopy), breast cancer; assay type: cell-based, human; settings: epirubicin-resistant strain; concentrations of Table 6
Experimental: (§1) Epirubicin-resistant breast cancer cells (MCF-7) and cisplatin-resistant lung cancer cells (H460) were respectively disseminated in each of the wells of an 8-well Tek chambered cover glass (Thermo Fisher Scientific K.K.) at 1×10^4 cells/well followed by culturing overnight. The medium was then replaced with 200 μl of RPMI1640 (phenol red-free) containing 0.1 μg/ml of Hoechst 33342 and 10% FBS.
(§2) 200 μl of eFluxx-ID-GFP solution were added 1 hour after addition of drug. The medium was replaced with RPMI1640 medium containing 10% FBS 30 minutes after addition followed by observation with an LSM780 confocal microscope and taking photographs thereof (FIGS. 12B and 13B). Cells subjected to the procedure prior to acquiring resistance were used as a control and epirubicin was added for the drug. In this experiment, fluorescence-labeled epirubicin (manufacturer) was used for the epirubicin.

[7] = tested on: cisplatin-resistant lung cancer cells (H460); experiment: Elimination of epirubicin and eFluxx-ID-GFP by resistant strain (confocal microscopy), lung cancer; assay type: cell-based, human; settings: concentrations of Table 6
Experimental: as §1, §2

[8] = tested on: A549 cells highly expressing MRP; experiment: eFluxx-ID Green Multidrug Resistance Assay (drug elimination activity, MAF), MRP; assay type: cell-based; settings: 30 μM
Experimental: (§3) More specifically, after detaching each of the cultured cells by incubating in trypsin-EDTA solution, the cells were washed with medium to obtain cell suspensions having a concentration of 1×10^4 cells/ml. […] 125 μl of eFluxx-ID-GFP solution were added 1 hour after addition of drug at the concentration directed in the kit. Following addition, the cell suspensions were incubated for 30 minutes at 37° C. followed by the addition of DAPI at a final concentration of 0.5 μg/ml and analyzing with a flow cytometer (BD LSR II, BD Biosciences). MAF values shown in the figures refer to the multidrug resistance activity factor (MAF) calculated from the mean fluorescence intensity of flow cytometry, and a high value for MAF indicates a greater inhibitory effect on ABC transporters. The calculation formulas were as indicated below: MAFMDR-1=100×(FMDR-1−F0)/FMDR-1 MAFMRP=100×(FMRP−F0)/FMRP NAFBCRP=100×(FBCRP−F0)/FBCRP [Equation 4] (wherein, F represents the mean flow cytometry value during addition of inhibitor, and F0 represents the mean flow cytometry value when inhibitor is not added).

[9] = tested on: Mesothelioma cell line MSTO-211H cells; experiment: Effect of micelle incorporation during addition of hAGP, Cell Counting Kit-8 cell survival; assay type: cell-based, human; settings: hAGP 0.5 mg/ml; STS 0.02 μg/ml, epirubicin 0.1 μg/ml
[10] = tested on: epirubicin-resistant breast cancer cells (MCF-7 EPI-R); experiment: eFluxx-ID Green Multidrug Resistance Assay (drug elimination activity, MAF), breast cancer; assay type: cell-based, human; settings: 30 μM
Experimental: as §3

[11] = tested on: epirubicin-resistant mesothelioma cells (MSTO-211H EPI-R); experiment: eFluxx-ID Green Multidrug Resistance Assay (drug elimination activity, MAF), mesothelioma; assay type: cell-based, human; settings: 30 μM
Experimental: as §3

[12] = tested on: cisplatin-resistant lung cancer cells (H460 Cis-R); experiment: eFluxx-ID Green Multidrug Resistance Assay (drug elimination activity, MAF), lung cancer; assay type: cell-based, human; settings: 30 μM
Experimental: as §3

[13] = tested on: Hela cells highly expressing BCRP; experiment: eFluxx-ID Green Multidrug Resistance Assay (drug elimination activity, MAF), BCRP; assay type: cell-based; settings: 30 μM
Experimental: as §3

For C[C@]12O[C@H](C[C@]1(O)CO)n1c3ccccc3c3c4c(c5c6ccccc6n2c5c31)CNC4=O [CEP701/lestaurtinib, lestaurtinib], the “detection of the compound in micelles formed by epirubicin-conjugated block copolymer” value (“detection of the compound” below) [1] was “able to be detected in the micelles”.
With Cn1cc(C2=C(c3cn(C4CCN(Cc5ccccn5)CC4)c4ccccc34)C(=O)NC2=O)c2ccccc21 [enzastaurin] the “detection of the compound” value [1] was “unable to be detected in the micelles”.
For CN[C@@H]1C[C@H]2O[C@@](C)([C@@H]1OC)n1c3ccccc3c3c4c(c5c6ccccc6n2c5c31)C(=O)N[C@H]4O [UCN-01, 7-hydroxystaurosporine], the “detection of the compound” value [1] was “able to be detected in the micelles” and the “Aldefluor-positive cells (cancer stem cells)” value (“Aldefluor-positive cells” for short) [2] was “decreased”.
For COC(=O)[C@H]1[C@H]2C[C@@H]3c4[nH]c5cc(OC)ccc5c4CCN3C[C@H]2C[C@@H](OC(=O)c2cc(OC)c(OC)c(OC)c2)[C@@H]1OC [reserpine], the “detection of the compound” value [1] was “able to be detected in the micelles”.
In the case of COc1cccc2c1C(=O)c1c(O)c3c(c(O)c1C2=O)C[C@@](O)(C(=O)CO)C[C@@H]3O[C@H]1C[C@H](N)[C@@H](O)[C@H](C)O1 [Epi, epirubicin], the “survival, log-rank test P versus negative control” value [3] is reported as 0.0001, the “survival, log-rank test P versus negative control” value [4] is reported as 0.016 and the “survival, significant difference versus negative control (log-rank test P)” value [5] is reported as “not observed”. The “elimination of epirubicin and eFluxx-ID outside the cells” value [6] was “eliminated outside cells” and the “elimination of epirubicin and eFluxx-ID outside the cells” value [7] was “eliminated outside cells”.
With CS(=O)(=O)c1ccc(C(=O)Nc2ccc(Cl)c(-c3ccccn3)c2)c(Cl)c1 [vismodegib] the “detection of the compound” value [1] was “unable to be detected in the micelles”.
For CO[C@@H]1[C@H](N(C)C(=O)c2ccccc2)C[C@H]2O[C@]1(C)n1c3ccccc3c3c4c(c5c6ccccc6n2c5c31)C(=O)NC4 [PKC412], the “detection of the compound” value [1] was “able to be detected in the micelles”.
With CN[C@@H]1C[C@H]2O[C@@](C)([C@@H]1OC)n1c3ccccc3c3c4c(c5c6ccccc6n2c5c31)C(=O)NC4 [staurosporine] the “dispersibility of staurosporine-incorporating epirubicin micelle” value ([1]; epirubicin:staurosporine weight ratio of 1:1) was “dispersibility increased”, the “polydispersivity of staurosporine-incorporating epirubicin micelle” value ([1]; epirubicin:staurosporine weight ratio of 1:2, unsuitable as incorporating micelle) was “polydispersivity increased” and the “incorporation of staurosporine in the epirubicin micelle” value ([1]; epirubicin:staurosporine weight ratio of 5:1) was “complete incorporation”. The “detection of the compound” value [1] was “able to be detected in the micelles”, the “elimination of drug (eFluxx-ID) from cells” value (“elimination of drug” below) [8] was “prevented elimination” and the “effect of addition of human α-acid glycoprotein (hAGP) on cell survival rate” value [9] was “significant increase in cell survival rate”. For the same molecule, the “elimination of drug” value [10] was “prevented elimination”, the “elimination of drug” value [11] was “prevented elimination” and the “elimination of drug” value [12] was “prevented elimination”. For the same molecule, the “elimination of drug” value [13] was “prevented elimination” and the “Aldefluor-positive cells” value [2] was “decreased”.
With Nc1nc2[nH]cc(CCc3ccc(C(=O)N[C@@H](CCC(=O)O)C(=O)O)cc3)c2c(=O)[nH]1 [pemetrexed] the “Aldefluor-positive cells” value [2] was “increased”.
In the case of N.N.[Cl][Pt][Cl] [cisplatin], the “Aldefluor-positive cells” value [2] is reported as “increased”.
In the case of COc1ccc(CCN(C)CCCC(C#N)(c2ccc(OC)c(OC)c2)C(C)C)cc1OC (stereo not drawn) [verapamil], the “elimination of epirubicin and eFluxx-ID outside the cells” value [6] is reported as “localized within the cells” and the “elimination of epirubicin and eFluxx-ID outside the cells” value [7] is reported as “localized within the cells”.
